Results published in patent publication US20030157516A1, “G protein coupled receptor” (priority 2000, published 2003).
Values joined by “and” are separate entries in the source; they are usually repeats but may differ in a detail not shown here. Identical values can stand only once.

Experiments:
[1] = biological target: T1, adenine binding rat receptor (Rattus norvegicus, UniProt Q7TN49); assay: [3H]adenine competition binding on CHO membranes transiently transfected; conditions: transfected cells, 15 nM [3H]adenine
T1 construct: expressed in transfected cells; host or cells: CHO cells, transient, lipofectamine PLUS
T1 sequence (Q7TN49 1-304): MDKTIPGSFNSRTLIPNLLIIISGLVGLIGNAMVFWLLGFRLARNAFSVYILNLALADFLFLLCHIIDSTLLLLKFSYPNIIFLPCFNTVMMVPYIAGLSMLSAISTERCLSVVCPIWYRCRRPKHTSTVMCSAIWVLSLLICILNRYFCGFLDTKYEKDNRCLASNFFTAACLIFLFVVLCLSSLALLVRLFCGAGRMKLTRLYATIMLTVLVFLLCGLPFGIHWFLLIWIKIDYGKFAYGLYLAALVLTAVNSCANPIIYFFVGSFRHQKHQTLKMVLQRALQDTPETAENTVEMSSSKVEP
Procedure: The membranes were prepared as total particulate fractions. The cell lines were cultured to […] on 145 mm petri dishes and treated with 5 mM sodium butyrate, 24 hours before collection. The culturing medium was removed and the cells were washed twice with ice cold phosphate buffered saline (PBS without Ca^2+ and Mg^2+), scraped from the plates in 50 mM Tris-HCl buffer, pH 7.4, and collected by centrifugation (10 minutes at 16,000 RPM at 4° C.). The cell pellet was re-suspended in hypotonic 5 mM Tris-HCl buffer, pH 7.4, and homogenized with an Ultra Turrax homogenizer (Janker Kunkel, Germany). The homogenate was centrifuged at 18,000 RPM for 20 minutes at 4° C. The final pellet was re-suspended in 50 mM Tris-HCl buffer, pH 7.4 and stored in aliquots at −70° C. A protein determination was performed using the Bradford protein assay (Biorad, Germany) using bovine serum albumin (BSA) as standard.
A) Methods—[3H]Adenine binding experiments were performed to characterize wild type cell lines before transfection as well as transiently and permanently transfected cell lines. Membranes were thawed on ice and diluted in 50 mM HEPES buffer, pH 7.4 supplemented with 10 mM MgCl2 and 1 mM EGTA. […] Both assays were carried out in a final volume of 500 μl, using 18 μg of membrane protein for the transfected CHO cells and 30 μg of membrane protein for the wild type CHO cells for the saturation binding. For competition binding experiments, 15 and 50 μg of membrane protein was used for the transfected and wild type cells, respectively. The reaction was terminated by rapid filtration through Whatman GF/B filters using a Brandel multi-channel cell harvester (96 wells). The filters were washed three times with 3 ml ice cold 50 mM HEPES buffer, pH 7.4, transferred to liquid scintillation vials and 3 ml of scintillation fluid (Ultima Gold MV, Packard, Netherlands) was added. Samples were counted in a β-scintillation counter after at least 6 hours to permit the glass fiber filters to become uniformly translucent.

rat adenine binding GPCR = biological target: T2, rat adenine binding GPCR (Rattus norvegicus, UniProt Q7TN49); assay: FLIPR Ca2+ transient assay, agonism, HEK293/Gq chimera cells transiently transfected with rat adenine binding GPCR/pcDNA3; assay type: cell-based; parameters: The full length reading frame was inserted into the mammalian expression vector pcDNA3; expressed in transfected cells; host or cells: HEK293 cells stably transfected with pLEC/Gqi or pLEC/Gqo
T2 sequence (Q7TN49 1-304): T1 sequence (Q7TN49 1-304)
Description: This assay is based around an instrument called a FLuorescence Imaging Plate Reader ((FLIPR®), Molecular Devices Corporation). In its most common configuration, it excites and measures fluorescence emitted by fluorescein-based dyes. It uses an argon-ion laser to produce high power excitation at 488 nm of a fluorophore, a system of optics to rapidly scan the over the bottom of a 96-/384-well plate and a sensitive, cooled CCD camera to capture the emitted fluorescence. It also contains a 96-/384-well pipetting head allowing the instrument to deliver solutions of test agents into the wells of a 96-/384-well plate. The FLIPR assay is designed to measure fluorescence signals from populations of cells before, during and after addition of compounds, in real time, from all 96-/384-wells simultaneously. […] As described below, calcium transients in cells transfected with adenine binding GPCR were measured using the FLIPR assay in order to measure activation of the receptors by various substrates in order to determine the natural ligand of the receptor.
The full length reading frame was inserted into the mammalian expression vector pcDNA3 (Invitrogen, Carlsbad, Calif., U.S.A.) and the resulting expression construct was transiently transfected with the FuGENE 6 reagent (Roche Molecular Biochemicals, Mannheim, Germany) into HEK293 cells stably transfected (E. Bender, unpublished) with pLEC/Gqi or pLEC/Gqo (Molecular Devices, Sunnyvale, Calif., U.S.A.). The cells were loaded with Fluo-4 (Molecular Probes, Eugene, Oreg., U.S.A.) according to the recommendations of the supplier. […]
Using the FLIPR assay as above, calcium transients were measured in both sets of cells with the transients attributable to the novel GPCR measured as the difference between the two transients. Results are illustrated in FIG. 4. […]

IC50 ([1]; mean of n experiments) | Ki ([1]; mean of n experiments) | IC50 ([1]; single experiments) | Ki ([1]; single experiments) | calcium transients (agonistic activity) (rat adenine binding GPCR; HEK293/Gaqo cells, 3.3 nM-33 μM, difference to empty-vector cells) | pIC50 ([1]; mean of n experiments) | pIC50 ([1]; single experiments) | agonism of nucleoside and nucleotide derivatives of adenine (rat adenine binding GPCR; at high concentrations (>3.3 μM)) | SMILES
0.0282 µM | 0.018 µM | 0.0174 µM and 0.0363 µM and 0.0309 µM and 0.0331 µM | 0.011 µM and 0.022 µM and 0.019 µM and 0.02 µM | dose responsive calcium transient |  |  |  | Nc1ncnc2nc[nH]c12 [Adenine, adenine]
 | 24.5 µM |  | 31.9 µM and 20.8 µM and 21.2 µM |  | 4.41 | 4.29 and 4.47 and 4.46 | weak partial agonism | Nc1ncnc2c1ncn2[C@@H]1O[C@H](COP(=O)(O)O)[C@@H](O)[C@H]1O [AMP]
7.08 µM | 4.39 µM | 6.17 µM and 9.77 µM and 5.75 µM | 3.79 µM and 6.06 µM and 3.57 µM |  |  |  |  | Cn1cnc2ncnc-2c1N [1-Methyladenine]
